Laboratory results from ChEMBL document CHEMBL1126209, “Synthesis of a peptidyl 2,2-difluoro-3-aminopropionate” (Bioorg Med Chem Lett, 1992).
Residues, ends and D or L forms follow the SMILES beside them. *: point of attachment. Dansyl = CN(C)c1cccc2c(S(=O)(=O)*)cccc12; Cbz = O=C(OCc1ccccc1)*; CF3 = FC(F)(F)*

molecular target: T1, Neutrophil elastase (Homo sapiens, UniProt P08246); experiment: Compound was evaluated In vitro for inhibition of human neutrophil elastase
T1 sequence (P08246 whole entry): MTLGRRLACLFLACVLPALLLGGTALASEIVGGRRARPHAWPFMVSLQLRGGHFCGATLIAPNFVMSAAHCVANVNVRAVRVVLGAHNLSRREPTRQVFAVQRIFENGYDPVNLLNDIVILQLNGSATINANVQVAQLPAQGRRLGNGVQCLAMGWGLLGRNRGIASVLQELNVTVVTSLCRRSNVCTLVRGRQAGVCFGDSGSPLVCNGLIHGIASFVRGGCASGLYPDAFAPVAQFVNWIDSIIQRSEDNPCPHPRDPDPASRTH

Ki | SMILES
> 300000 nM | CCOC(=O)C(F)(F)C(NC(=O)C1CCCN1C(=O)C(C)NC(=O)C(C)NC(=O)OC(C)(C)C)C(C)C (centres undefined)
10 nM | CC(C)[C@H](NC(=O)[C@@H]1CCCN1C(=O)[C@H](C)NC(=O)[C@H](C)NS(=O)(=O)c1cccc2c(N(C)C)cccc12)C(=O)C(F)(F)F (Dansyl-AAPV-CF3)
44 nM | CC(C)[C@H](NC(=O)[C@@H]1CCCN1C(=O)[C@H](C)NC(=O)[C@H](C)NCC(=O)OC(C)(C)C)C(=O)C(F)(F)F
1 nM | CC(C)[C@H](NC(=O)[C@@H]1CCCN1C(=O)[C@H](C)NC(=O)[C@H](C)NC(=O)OCc1ccccc1)C(=O)C(F)(F)F (Cbz-AAPV-CF3)
